From US20230149409A1, “TREATMENT OF HUMAN PAPILLOMAVIRUS-ASSOCIATED CANCERS BY PD-L1 INHIBITORS” (priority 2021, published 2023) come the findings set out here.

By IC50 is commonly meant the concentration that inhibits the measured activity by half. As a reminder, the EC50 is the concentration giving half of the maximal effect.

The test system of assay [1] is PD-L1 (U2OS/PD-L1 cells, Jurkat-PD-1-SHP cells). The assay is described as follows: Src Homology Region 2 Domain-containing Phosphatase (SHP) assay. The note with it: Homo sapiens; U2OS/PD-L1 + Jurkat-PD-1-SHP cells, 2 hours. The assay is classed as cell-based. In a few lines: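 U2OS/PD-L1 cells and Jurkat-PD-1-SHP cells (5,000 each per well) were co-incubated with compound in RPMI1640/1% FBS for 2 h at 37° C, with final DMSO 0.05%. PathHunter chemiluminescence was read after 1 h at room temperature. IC50 was fitted from percent of DMSO-control activity against log concentration.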

Assay [2] relates to PD-L1 (PD-L1 aAPC/CHO-K1 cells, Jurkat-PD-1-NFAT effector cells). Put plainly: Nuclear Factor of Activated T-cells (NFAT) assay. The assay is classed as cell-based. The note with it: Cricetulus griseus; PD-L1 aAPC/CHO-K1 + Jurkat-PD-1-NFAT cells, 24 hours. An outline of the steps: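 PD-L1 aAPC/CHO-K1 cells (8000/well) were treated with compound (0.4% DMSO, 2 µM final), then co-cultured with Jurkat-PD-1-NFAT effector cells for 24 hours at 37° C. NFAT luciferase luminescence was normalized to DMSO as fold induction. Maximum induction is relative to the control compound's top FOI; EC50 is from curve fitting.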

For assay [3], the target named is T1, PD-L1 on CD14+ cells in human whole blood (Homo sapiens, UniProt Q9NZQ7).
T1 construct: Cells were gated on CD14+ (BD Biosciences) and PD-L1 expression determined by mean fluorescence intensity; host or cells: CD14+ cells in normal human whole blood, stimulated with human interferon gamma
T1 sequence (Q9NZQ7 19-290): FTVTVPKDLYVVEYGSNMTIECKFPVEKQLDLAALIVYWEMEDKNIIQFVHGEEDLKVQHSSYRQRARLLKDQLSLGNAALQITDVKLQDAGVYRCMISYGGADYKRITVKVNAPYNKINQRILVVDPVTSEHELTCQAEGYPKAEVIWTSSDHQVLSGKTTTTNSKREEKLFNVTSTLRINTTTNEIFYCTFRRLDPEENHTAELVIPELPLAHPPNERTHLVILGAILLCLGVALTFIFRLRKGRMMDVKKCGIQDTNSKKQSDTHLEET
The assay is described as follows: PD-L1 whole blood internalization assay. The assay is classed as cell-based. The conditions noted are these: 1 ng/mL interferon γ, CD14+ gated, 24 hour. In a few lines: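 Normal human whole blood exposed to compound concentration range plus 1 ng/mL IFN-γ for 18–20 h at 37 °C, then stained for PD-L1 and CD14, red cells lysed/fixed. PD-L1 MFI measured on CD14+ gated cells by flow cytometry; IC50 from percent inhibition versus log concentration fit.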

Assay [4] concerns the target T2, PD-⅟PD-L1 (recombinant human PD-L1 protein and human PD-1 protein) (Homo sapiens, UniProt Q9NZQ7).
T2 construct: Recombinant human PD-L1 protein (19-238) with a His-tag at the C-terminus; purchased AcroBiosystems PD1-H5229 (PD-L1); PD1-H5257 (PD-1)
The assay is described as follows: Homogeneous Time-Resolved Fluorescence (HTRF) PD-1/PD-L1 binding assay. The conditions noted are these: 3 nM PD1, 10 nM PD-L1, 25° C., PBS pH 7.4. A general note: In TR-FRET formats the signal depends on donor and acceptor labels being close together.

T2 sequence (Q9NZQ7 19-238): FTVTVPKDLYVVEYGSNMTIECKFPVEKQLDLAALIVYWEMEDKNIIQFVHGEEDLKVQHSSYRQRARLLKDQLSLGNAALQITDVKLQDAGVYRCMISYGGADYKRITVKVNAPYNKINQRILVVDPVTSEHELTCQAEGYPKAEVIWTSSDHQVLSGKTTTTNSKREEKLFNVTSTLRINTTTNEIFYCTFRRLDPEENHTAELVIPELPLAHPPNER

For the compound `Cc1c(Nc2nccc3cc(CN4CC[C@@H](O)C4)cnc23)cccc1-c1cccc(-c2nc3cc(CN4CC[C@@H](C(=O)O)C4)cc(C#N)c3o2)c1C` [Compound 1, (R)-1-((7-cyano-2-(3′-(3-(((R)-3-hydroxypyrrolidin-1-yl)methyl)-1,7-naphthyridin-8-ylamino)-2,2′-dimethylbiphenyl-3-yl)benzo[d]oxazol-5-yl)methyl)pyrrolidine-3-carboxylic acid], the IC50 in assay [1] was under 10 nM; in assay [3], under 500 nM. In addition, the EC50 in assay [2] was under 100 nM.

On to `Cn1c(C(=O)Nc2cccc(-c3cccc(NC(=O)c4nc5c(n4C)CCN(CCC46CCC(C(=O)O)(CC4)C6)C5)c3Cl)c2Cl)nc2c1CCN(CCC13CCC(C(=O)O)(CC1)C3)C2` [Compound 30, 4,4′-(((((2,2′-dichloro-[1,1′-bipheiryl]-3,3′-diyl)bis(azanediyl))bis(carbonyl))bis(1-methyl-1,4,6,7-tetrahydro-5H-imidazo[4,5-c]pyridine-2,5-diyl))bis(ethane-2,1-diyl))bis(bicyclo[2.2.1]heptane-1-carboxylic acid)], for which the IC50 in assay [1] was under 10 nM; in assay [4] it was under 10 nM; in assay [3] it was under 100 nM. The EC50 in assay [2] is under 100 nM.
